# From patent US20240226115A1, “AXL INHIBITOR COMPOUNDS” (ARCUS BIOSCIENCES, INC., priority 2021, published 2024)
# Molecular target: T1, recombinant human MER (Homo sapiens, UniProt Q12866)
# T1 construct: purchased Invitrogen
# T1 sequence (Q12866 21-999): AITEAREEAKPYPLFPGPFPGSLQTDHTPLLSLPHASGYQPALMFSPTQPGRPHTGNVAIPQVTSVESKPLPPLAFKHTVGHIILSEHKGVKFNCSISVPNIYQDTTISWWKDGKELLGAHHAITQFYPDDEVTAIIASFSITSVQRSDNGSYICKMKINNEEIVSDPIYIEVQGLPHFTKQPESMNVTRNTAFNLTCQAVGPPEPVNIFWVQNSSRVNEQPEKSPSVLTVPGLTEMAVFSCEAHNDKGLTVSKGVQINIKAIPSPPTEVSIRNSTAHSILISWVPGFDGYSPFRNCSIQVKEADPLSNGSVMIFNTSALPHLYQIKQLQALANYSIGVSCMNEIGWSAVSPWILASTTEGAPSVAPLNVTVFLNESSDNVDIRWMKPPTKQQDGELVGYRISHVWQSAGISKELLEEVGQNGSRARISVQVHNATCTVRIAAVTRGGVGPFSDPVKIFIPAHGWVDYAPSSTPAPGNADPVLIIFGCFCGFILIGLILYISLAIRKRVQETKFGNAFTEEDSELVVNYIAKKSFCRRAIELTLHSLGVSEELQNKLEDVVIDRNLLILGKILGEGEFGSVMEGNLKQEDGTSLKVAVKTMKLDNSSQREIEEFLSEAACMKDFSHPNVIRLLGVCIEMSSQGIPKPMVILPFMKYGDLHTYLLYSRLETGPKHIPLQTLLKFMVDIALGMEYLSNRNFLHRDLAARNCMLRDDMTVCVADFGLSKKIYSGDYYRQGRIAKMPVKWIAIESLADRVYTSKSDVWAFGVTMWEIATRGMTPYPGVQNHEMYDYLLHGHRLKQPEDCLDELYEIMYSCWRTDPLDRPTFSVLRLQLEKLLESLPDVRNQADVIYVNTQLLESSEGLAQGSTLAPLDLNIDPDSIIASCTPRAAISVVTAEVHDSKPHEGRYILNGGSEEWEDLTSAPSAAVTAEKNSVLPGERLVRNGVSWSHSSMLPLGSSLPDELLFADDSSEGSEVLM
# Experiment: HTRF KinEASE-TK biochemical potency, MER
# Details: 1 nM MER, 700 μM ATP
# Method in brief: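 Enzyme preincubated with compound 1 h at RT; final 5 nM AXL or 1 nM TYRO3/MER, 800 nM TK substrate-biotin, 700 μM ATP, HEPES pH 7.4, MgCl2, 1% DMSO, 2 h at RT. HTRF 665/620 ratio read after streptavidin-XL665/cryptate antibody detection; percent activity relative to DMSO and pre-stopped controls.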
row,IC50 [nM],Structure (SMILES)
1,< 100,"C[C@@H]1CCCN1C1CCc2ccc(-c3cnc4[nH]nc(-c5ccc6c(c5)O[C@@H](C)CNC6=O)c4c3)cc2CC1 (stereo partly drawn) [Example 62, (2S)-2-Methyl-8-(5-{7-[(2R)-2-methylpyrrolidin-1-yl]-6,7,8,9-tetrahydro-5H-benzo[7]annulen-2-yl}-1H-pyrazolo[3,4-b]pyridin-3-yl)-2,3,4,5-tetrahydro-1,4-benzoxazepin-5-one]"
2,100 to 1000,"O=C1NCCOc2cc(-c3n[nH]c4ncc(-c5ccc6c(n5)CCC(N5CCCC5)CC6)cc34)ccc21 (centres unmarked) [Example 63, 8-{5-[7-(Pyrrolidin-1-yl)-5H,6H,7H,8H,9H-cyclohepta[b]pyridin-2-yl]-1H-pyrazolo[3,4-b]pyridin-3-yl}-2,3,4,5-tetrahydro-1,4-benzoxazepin-5-one]"
3,< 100,"Cc1cc2c(cc1-c1cnc3[nH]nc(-c4ccc5c(c4)OCCNC5=O)c3c1)CCC(N1CCC[C@H]1C)CC2 (stereo partly drawn) [Example 64, 8-(5-{3-Methyl-7-[(2R)-2-methylpyrrolidin-1-yl]-6,7,8,9-tetrahydro-5H-benzo[7]annulen-2-yl}-1H-pyrazolo[3,4-b]pyridin-3-yl)-2,3,4,5-tetrahydro-1,4-benzoxazepin-5-one]"
4,< 100,"C[C@@H]1CCCN1C1CCc2cc(-c3cnc4[nH]nc(-c5ccc6c(c5)OCCNC6=O)c4c3)cc(Cl)c2CC1 (stereo partly drawn) [Example 65, 8-(5-{4-Chloro-7-[(2R)-2-methylpyrrolidin-1-yl]-6,7,8,9-tetrahydro-5H-benzo[7]annulen-2-yl}-1H-pyrazolo[3,4-b]pyridin-3-yl)-2,3,4,5-tetrahydro-1,4-benzoxazepin-5-one]"
5,100 to 1000,"C[C@@H]1CCCN1C1CCc2ccc(-c3cnc4[nH]nc(-c5ccc6c(c5)OCCNS6(=O)=O)c4c3)cc2CC1 (stereo partly drawn) [Example 66, 7-(5-{7-[(2R)-2-Methylpyrrolidin-1-yl]-6,7,8,9-tetrahydro-5H-benzo[7]annulen-2-yl}-1H-pyrazolo[3,4-b]pyridin-3-yl)-3,4-dihydro-2H-5,12,2-benzoxathiazepine-1,1-dione]"
